These are literature values, as cited in patent US8404246B2, “Nutritional supplement to improve supplementary target protein fraction (TPF) delivery, intracellular absorption and utilization” (priority 2010, dated 2013).

The conditions of series [1]: exogenous form.

Where two headings read alike, the source gives them in different places.

For the molecule `Cl.N[C@H]1C(O)O[C@H](CO)[C@@H](O)[C@@H]1O` (stereo partly drawn) [glucosamine HCl], where the note is “in vivo”, the “ingested glycoprotein detectable in serum after dosing” value was 6%.
Turning to glucosamine NaCl, the “ingested glycoprotein detectable in serum after dosing” value (one recent study) is on record as 9%.
As for `CC(=O)N[C@H]1C(O)O[C@H](CO)[C@@H](O)[C@@H]1O` (stereo partly drawn) [N-acetyl D-glucosamine, N-Acetyl D-Glucosamine], the solubility in water entry in series [1] is reported as “readily soluble”.
